Measured values from the supplement of paper PMC10307832.

Experiments:
Assay in all cases: relative viability (nuclei count vs DMSO), 5 days (fraction); higher = more cells survive
[1] = compound: CC1CC(=O)N(C2=CN=C(N=C2N1C3CCCC3)NC4=C(C=C(C=C4)C(=O)NC5CCN(CC5)C)OC)C [NPK76-II-72-1] + Cc1cc(Nc2cc(N3CCN(C)CC3)nc(Sc3ccc(NC(=O)C4CC4)cc3)n2)n[nH]1 [Tozasertib] (partner 0.1 µM)
Method in brief: (§1)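 A single step with final 0.05% Triton X-100, 1% formaldehyde and 1 ug/ml Hoechst fixed the cells and stained nuclei 5 days after treatment. Lung cancer cell lines in 1536-well plates had been treated by pin tool the day after seeding with one drug alone or a fixed anchor-drug dose plus five library-drug doses (not always all listed) in √10 steps, and nuclei were counted on 4× images. Relative viability is the ratio of nuclei in treated wells to nuclei in vehicle wells, taken as the median of duplicate plates.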

[2] = compound: CC1CC(=O)N(C2=CN=C(N=C2N1C3CCCC3)NC4=C(C=C(C=C4)C(=O)NC5CCN(CC5)C)OC)C [NPK76-II-72-1] + CC(=O)Nc1cccc(-n2c(=O)n(C3CC3)c(=O)c3c(Nc4ccc(I)cc4F)n(C)c(=O)c(C)c32)c1 [Trametinib] (partner 0.02 µM)
Method in brief: as §1

[3] = compound: CC1CC(=O)N(C2=CN=C(N=C2N1C3CCCC3)NC4=C(C=C(C=C4)C(=O)NC5CCN(CC5)C)OC)C [NPK76-II-72-1] + COc1cc2c(Oc3ccc(NC(=O)C4(C(=O)Nc5ccc(F)cc5)CC4)cc3F)ccnc2cc1OCCCN1CCOCC1 [Foretinib] (partner 0.25 µM)
Method in brief: as §1

[4] = compound: CC1CC(=O)N(C2=CN=C(N=C2N1C3CCCC3)NC4=C(C=C(C=C4)C(=O)NC5CCN(CC5)C)OC)C [NPK76-II-72-1] + CC1(C)CCC(c2ccc(Cl)cc2)=C(CN2CCN(c3ccc(C(=O)NS(=O)(=O)c4ccc(N[C@H](CCN5CCOCC5)CSc5ccccc5)c(S(=O)(=O)C(F)(F)F)c4)cc3)CC2)C1 [Navitoclax] (partner 0.5 µM)
Method in brief: as §1

UMC-11
relative viability ([1]; first compound 0.01 µM): 0.197 | relative viability ([1]; first compound 0.03162 µM): 0.186 | relative viability ([1]; first compound 0.1 µM): 0.197 | relative viability ([1]; first compound 1 µM): 0.205 | relative viability ([2]; first compound 0.01 µM): 0.692 | relative viability ([2]; first compound 0.03162 µM): 0.629 | relative viability ([2]; first compound 0.1 µM): 0.75 | relative viability ([2]; first compound 0.3162 µM): 0.484 | relative viability ([2]; first compound 1 µM): 0.812 | relative viability ([3]; first compound 0.01 µM): 0.988 | relative viability ([3]; first compound 0.03162 µM): 1.06 | relative viability ([3]; first compound 0.1 µM): 1.06 | relative viability ([3]; first compound 1 µM): 0.95 | relative viability ([4]; first compound 0.01 µM): 0.313 | relative viability ([4]; first compound 0.03162 µM): 0.276 | relative viability ([4]; first compound 0.1 µM): 0.302 | relative viability ([4]; first compound 0.3162 µM): 0.305 | relative viability ([4]; first compound 1 µM): 0.357
